# Patent publication US8609669B2, “Potassium channel modulators” (AbbVie Inc., priority 2010, dated 2013)
# Molecular target: T1, KCNQ 2/3 channels (HEK293 cells stably expressing human KCNQ2 and KCNQ3 subunits) (Homo sapiens, UniProt O43525+O43526)
# T1 construct: expressed in transfected cells; host or cells: HEK293
# Assay: KCNQ2/3 channel activation, thallium flux FLIPR assay (BTC-AM dye)
# Assay type: cell-based
# Settings: for Emax: HEK293, maximum response relative to response of retigabine at 10 μM (set at 100%), read-out: Max. %; for EC50: HEK293 cells expressing human KCNQ2 and KCNQ3, FLIPR thallium flux
# How it was run: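 HEK293 cells stably expressing human KCNQ2/KCNQ3 were loaded with BTC-AM and exposed to compound for 4 min in pH 7.3 gluconate buffer with ouabain. Thallium flux was triggered with 6 mM TlNO3 and 10 mM K2SO4 (stock additions) and fluorescence (ex 488, em 540 nm) recorded for 3 min. EC50 came from responses over baseline; maximal response is relative to 10 μM retigabine (100%).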
Emax [%],EC50 [nM],Structure (SMILES)
40,1000 to 10000,"CC(C)(C)CC(=O)Nc1nn2cccnc2c1C#Cc1ccc(OC(F)(F)F)cc1 [Example 156, 3,3-dimethyl-N-(3-{[4-(trifluoromethoxy)phenyl]ethynyl}pyrazolo[1,5-a]pyrimidin-2-yl)butanamide]"
117,100 to 500,"Cc1cc(-c2c(NC(=O)CCC3CCCC3)nn3c(C)ccnc23)ccc1Cl [Example 46, N-[3-(4-chloro-3-methylphenyl)-7-methylpyrazolo[1,5-a]pyrimidin-2-yl]-3-cyclopentylpropanamide]"
8,> 10000,"CC(C)(C)CC(=O)Nc1nn2cccnc2c1-c1cccnc1 [Example 110, 3,3-dimethyl-N-[3-(pyridin-3-yl)pyrazolo[1,5-a]pyrimidin-2-yl]butanamide]"
191,100 to 500,"CC(C)(C)c1c(NC(=O)Cc2ccc(Cl)cc2)nn2cccnc12 [Example 152, N-(3-tert-butylpyrazolo[1,5-a]pyrimidin-2-yl)-2-(4-chlorophenyl)acetamide]"
116,1000 to 10000,"COc1ccc(CC(=O)Nc2nn3cccnc3c2C(C)(C)C)cc1 [Example 155, N-(3-tert-butylpyrazolo[1,5-a]pyrimidin-2-yl)-2-(4-methoxyphenyl)acetamide]"
68,1000 to 10000,"Cc1cc(C)n2nc(NC(=O)CCC3CCCCC3)c(-c3ccc(Cl)c(C)c3)c2n1 [Example 48, N-[3-(4-chloro-3-methylphenyl)-5,7-dimethylpyrazolo[1,5-a]pyrimidin-2-yl]-3-cyclohexylpropanamide]"
177,1000 to 10000,"CC(C)(C)c1c(NC(=O)CC2CCC3CC23)nn2cccnc12 (stereo not drawn) [Example 175, 2-[(cis)-bicyclo[3.1.0]hex-2-yl]-N-(3-tert-butylpyrazolo[1,5-a]pyrimidin-2-yl)acetamide]"
123,1000 to 10000,"Cc1ccnc2c(-c3cccc(Cl)c3)c(NC(=O)CCc3ccccc3)nn12 [Example 49, N-[3-(3-chlorophenyl)-7-methylpyrazolo[1,5-a]pyrimidin-2-yl]-3-phenylpropanamide]"
125,100 to 500,"Cc1cnc2c(-c3ccc(F)cc3)c(NC(=O)Cc3ccc(Cl)cc3)nn2c1 [Example 27, 2-(4-chlorophenyl)-N-[3-(4-fluorophenyl)-6-methylpyrazolo[1,5-a]pyrimidin-2-yl]acetamide]"
198,< 100,"Cc1cnc2c(-c3ccc(F)c(C)c3)c(NC(=O)CC3CC4CCC3C4)nn2c1 (racemic) [Example 150, (±)-exo-2-bicyclo[2.2.1]hept-2-yl-N-[3-(4-fluoro-3-methylphenyl)-6-methylpyrazolo[1,5-a]pyrimidin-2-yl]acetamide]"
59,> 10000,"COc1ccc(CC(=O)Nc2nn3c(C)ccnc3c2-c2ccc(C(F)(F)F)cc2)cc1 [Example 80, 2-(4-methoxyphenyl)-N-{7-methyl-3-[4-(trifluoromethyl)phenyl]pyrazolo[1,5-a]pyrimidin-2-yl}acetamide]"
73,500 to 1000,"CC1(C)[C@H]2CC[C@@H](CC(=O)Nc3nn4cccnc4c3-c3ccc(OC(F)(F)F)cc3)[C@@H]1C2 [Example 4, 2-[(1S,2S,5S)-6,6-dimethylbicyclo[3.1.1]hept-2-yl]-N-{3-[4-(trifluoromethoxy)phenyl]pyrazolo[1,5-a]pyrimidin-2-yl}acetamide]"
136,500 to 1000,"Cc1ccnc2c(-c3ccc(OC(F)(F)F)cc3)c(NC(=O)CC(C)(C)c3ccccc3)nn12 [Example 159, 3-methyl-N-{7-methyl-3-[4-(trifluoromethoxy)phenyl]pyrazolo[1,5-a]pyrimidin-2-yl}-3-phenylbutanamide]"
131,500 to 1000,"Cc1cc(C)n2nc(NC(=O)CCc3ccccc3)c(-c3cccc(F)c3)c2n1 [Example 85, N-[3-(3-fluorophenyl)-5,7-dimethylpyrazolo[1,5-a]pyrimidin-2-yl]-3-phenylpropanamide]"
98,500 to 1000,"O=C(CC12CC3CC(CC(C3)C1)C2)Nc1nn2cccnc2c1-c1ccc2ccccc2c1 [Example 116, 2-(adamantan-1-yl)-N-[3-(2-naphthyl)pyrazolo[1,5-a]pyrimidin-2-yl]acetamide]"
65,500 to 1000,"O=C(CCC1CCCC1)Nc1nn2cccnc2c1-c1ccc(C(F)(F)F)c(F)c1 [Example 88, 3-cyclopentyl-N-{3-[3-fluoro-4-(trifluoromethyl)phenyl]pyrazolo[1,5-a]pyrimidin-2-yl}propanamide]"
155,100 to 500,"Cc1cnc2c(C(C)(C)C)c(NC(=O)CC3CCCCC3)nn2c1 [Example 180, N-(3-tert-butyl-6-methylpyrazolo[1,5-a]pyrimidin-2-yl)-2-cyclohexylacetamide]"
173,100 to 500,"COc1cccc(CC(=O)Nc2nn3c(C)cc(C)nc3c2-c2ccc(F)c(C)c2)c1 [Example 32, N-[3-(4-fluoro-3-methylphenyl)-5,7-dimethylpyrazolo[1,5-a]pyrimidin-2-yl]-2-(3-methoxyphenyl)acetamide]"

Emax [%],EC50 [nM],Structure (SMILES)
8,> 10000,"O=C(Cc1cccnc1)Nc1nn2cccnc2c1-c1ccc(Cl)cc1 [Example 101, N-[3-(4-chlorophenyl)pyrazolo[1,5-a]pyrimidin-2-yl]-2-(pyridin-3-yl)acetamide]"
10,> 10000,"O=C(Cc1ccccc1O)Nc1nn2cccnc2c1-c1ccc(Cl)cc1 [Example 104, N-[3-(4-chlorophenyl)pyrazolo[1,5-a]pyrimidin-2-yl]-2-(2-hydroxyphenyl)acetamide]"
150,< 100,"CC(C)(C)c1c(NC(=O)CC2CC3CCC2C3)nn2cccnc12 (racemic) [Example 121, (±)-exo-2-bicyclo[2.2.1]hept-2-yl-N-(3-tert-butylpyrazolo[1,5-a]pyrimidin-2-yl)acetamide]"
179,< 100,"Cc1cnc2c(-c3ccc(F)c(C)c3)c(NC(=O)CC34CC5CC(CC(C5)C3)C4)nn2c1 [Example 151, 2-(adamantan-1-yl)-N-[3-(4-fluoro-3-methylphenyl)-6-methylpyrazolo[1,5-a]pyrimidin-2-yl]acetamide]"
107,100 to 500,"CC(C)(C)/C=C/c1c(NC(=O)Cc2ccc(F)cc2)nn2cccnc12 [Example 161, N-{3-[(1E)-3,3-dimethylbut-1-en-1-yl]pyrazolo[1,5-a]pyrimidin-2-yl}-2-(4-fluorophenyl)acetamide]"
94,100 to 500,"CC(C)(C)c1c(NC(=O)CC23CC4CC(CC(C4)C2)C3)nn2cccnc12 [Example 107, 2-(adamantan-1-yl)-N-(3-tert-butylpyrazolo[1,5-a]pyrimidin-2-yl)acetamide]"
51,1000 to 10000,"CC(C)(C)OC(=O)Nc1nn2cccnc2c1/C=C/C1CCCCC1 [Example 177, tert-butyl {3-[(E)-2-cyclohexylvinyl]pyrazolo[1,5-a]pyrimidin-2-yl}carbamate]"
140,500 to 1000,"COc1cccc(CC(=O)Nc2nn3cc(C)cnc3c2-c2ccc(OC(F)(F)F)cc2)c1 [Example 8, 2-(3-methoxyphenyl)-N-{6-methyl-3-[4-(trifluoromethoxy)phenyl]pyrazolo[1,5-a]pyrimidin-2-yl}acetamide]"
239,100 to 500,"Cc1cnc2c(-c3ccc(C(F)(F)F)c(F)c3)c(NC(=O)CC3CCCC3)nn2c1 [Example 87, 2-cyclopentyl-N-{3-[3-fluoro-4-(trifluoromethyl)phenyl]-6-methylpyrazolo[1,5-a]pyrimidin-2-yl}acetamide]"
167,< 100,"Cc1cc(C)n2nc(NC(=O)CCC3CCCC3)c(-c3ccccc3)c2n1 [Example 95, 3-cyclopentyl-N-(5,7-dimethyl-3-phenylpyrazolo[1,5-a]pyrimidin-2-yl)propanamide]"
191,100 to 500,"Cc1cc(C)n2nc(NC(=O)CCc3ccccc3)c(CC(C)(C)C)c2n1 [Example 15, N-[3-(2,2-dimethylpropyl)-5,7-dimethylpyrazolo[1,5-a]pyrimidin-2-yl]-3-phenylpropanamide]"
163,> 10000,"COc1cccc(CC(=O)Nc2nn3c(C)ccnc3c2CC(C)(C)C)c1 [Example 38, N-[3-(2,2-dimethylpropyl)-7-methylpyrazolo[1,5-a]pyrimidin-2-yl]-2-(3-methoxyphenyl)acetamide]"
166,< 100,"Cc1cc(C)n2nc(NC(=O)CC3CCCCC3)c(-c3ccc(F)c(C)c3)c2n1 [Example 34, 2-cyclohexyl-N-[3-(4-fluoro-3-methylphenyl)-5,7-dimethylpyrazolo[1,5-a]pyrimidin-2-yl]acetamide]"
117,100 to 500,"Cc1ccnc2c(-c3cccc(C(F)(F)F)c3)c(NC(=O)Cc3ccc(F)cc3)nn12 [Example 67, 2-(4-fluorophenyl)-N-{7-methyl-3-[3-(trifluoromethyl)phenyl]pyrazolo[1,5-a]pyrimidin-2-yl}acetamide]"
142,100 to 500,"CC(C)(C)c1c(NC(=O)Cc2ccc(F)cc2)nn2cccnc12 [Example 123, N-(3-tert-butylpyrazolo[1,5-a]pyrimidin-2-yl)-2-(4-fluorophenyl)acetamide]"
133,1000 to 10000,"CC(C)(C)c1c(NC(=O)C=C2CCCCC2)nn2cccnc12 [Example 163, N-(3-tert-butylpyrazolo[1,5-a]pyrimidin-2-yl)-2-cyclohexylideneacetamide]"
134,100 to 500,"CC(C)(C)c1c(NC(=O)CC2CCC3C2C3(Cl)Cl)nn2cccnc12 (stereo not drawn) [Example 169, N-(3-tert-butylpyrazolo[1,5-a]pyrimidin-2-yl)-2-[(cis)-6,6-dichlorobicyclo[3.1.0]hex-2-yl]acetamide]"
